Peptide text beside a SMILES is read from it.
Tested on: SD rats
Test: Gross necropsy and weight of vital organs in acute toxicity study
Type: in vivo, Sprague Dawley rats
Conditions: for Adrenals, absolute weight / Body weight / Brain, absolute weight / Heart, absolute weight / Kidneys, absolute weight / Liver, absolute weight / Ovaries, absolute weight / Spleen, absolute weight / Thymus, absolute weight / Thyroid, absolute weight / Uterus, absolute weight / Epididymides, absolute weight / Testis, absolute weight: day 15, mean ± SD
Description: Forty SD rats (20 males and 20 females) were randomly divided into 4 groups (Figure 1). All rats were given F3 once on the day of the experiment.
Twelve SD rats (6 males, 6 females) were given a daily subcutaneous injection of F3 at a dose of 10.0 mg/kg for consecutive 14 days. The first day of administration was recorded as day 1.
For 14 days, the body weight was measured before F3 administration on the first day of the experiment and once a week thereafter, with additional measurements on the day before and on the day of the planned autopsy. Food intake was recorded once a week. The rats were anesthetized by inhalation of 70% CO2/30% O2 before dissection, and blood samples were taken for hematology and biochemical analysis. The collected tissue was weighed and preserved for pathological examination.
After blood was collected at the predetermined time points, all rats were euthanized and subjected to a comprehensive general autopsy, which included a thorough examination of the external surface of the body, all foramen, cranial cavity, external surface of the brain, chest, abdomen, pelvic cavity, viscera, cervix, and genitalia. The adrenal gland, brain (brain, cerebellum, and brain stem), epididymis, heart, kidney, liver, ovary, spleen, testis, thymus, thyroid gland, and uterus were carefully collected, weighed, and documented before being kept in 10% neutral formalin buffer (10% NBF).

[1] = female SD rats, s.c. 10.0 mg/kg daily x14 d, n=6
[2] = female SD rats, single s.c. 1.0 mg/kg, n=5
[3] = female SD rats, single s.c. 10.0 mg/kg, n=5
[4] = female SD rats, single s.c. 100.0 mg/kg, n=5
[5] = male SD rats, s.c. 10.0 mg/kg daily x14 d, n=6
[6] = male SD rats, single s.c. 1.0 mg/kg, n=5
[7] = male SD rats, single s.c. 10.0 mg/kg, n=5
[8] = male SD rats, single s.c. 100.0 mg/kg, n=5

## CC[C@H](C)[C@H](NC(=O)[C@H](CO)NC(=O)CNC(=O)[C@H](CC(C)C)NC(=O)[C@@H](NC(=O)CNC(=O)[C@H](Cc1ccccc1)NC(=O)[C@H](CC(C)C)NC(=O)CN)C(C)C)C(=O)N[C@@H](C)C(=O)N[C@@H](CCCCN)C(=O)N[C@@H](Cc1c[nH]cn1)C(=O)N[C@H](C(=O)N[C@@H](CC(C)C)C(=O)N1CCC[C@H]1C(=O)N[C@@H](Cc1c[nH]cn1)C(=O)N[C@H](C(=O)N[C@H](C(=O)N1CCC[C@H]1C(=O)N[C@H](C(=O)N[C@H](C(=O)N[C@@H](C)C(=O)N[C@@H](CCC(=O)O)C(=O)N[C@@H](CCCCN)C(=O)N[C@@H](CC(C)C)C(N)=O)[C@@H](C)CC)C(C)C)C(C)C)C(C)C)C(C)C [F3, Caerin 1.9] (H-GLFGVLGSIAKHVLPHVVPVIAEKL-NH2)
SD rats, s.c. 10.0 mg/kg daily x14 d, all rats
  gross necropsy findings: diffuse subcutaneous bleeding at the injection site
SD rats, single or repeated s.c. injections
  influence on absolute and relative organ weight: no influence
SD rats, single s.c. 100.0 mg/kg
  gross necropsy findings: skin scab and thickening at the administration site in all male rats and four female rats
[1]
  Adrenals, absolute weight: 0.0793 ± 0.0101 g
  Body weight: 233.55 ± 16.03 g
  Brain, absolute weight: 1.9517 ± 0.0244 g
  Heart, absolute weight: 1.1247 ± 0.1287 g
  Kidneys, absolute weight: 1.7017 ± 0.123 g
  Liver, absolute weight: 7.5278 ± 0.6229 g
  Ovaries, absolute weight: 0.093 ± 0.0151 g
  Spleen, absolute weight: 0.6908 ± 0.0750 g
  Thymus, absolute weight: 0.427 ± 0.0886 g
  Thyroid, absolute weight: 0.0242 ± 0.0053 g
  Uterus, absolute weight: 0.4797 ± 0.1336 g
[2]
  Adrenals, absolute weight: 0.0728 ± 0.0097 g
  Body weight: 238.86 ± 7.94 g
  Brain, absolute weight: 2.0504 ± 0.0552 g
  Heart, absolute weight: 1.1086 ± 0.1559 g
  Kidneys, absolute weight: 1.9364 ± 0.118 g
  Liver, absolute weight: 7.7464 ± 0.2893 g
  Ovaries, absolute weight: 0.1036 ± 0.0242 g
  Spleen, absolute weight: 0.57 ± 0.1214 g
  Thymus, absolute weight: 0.5216 ± 0.0746 g
  Thyroid, absolute weight: 0.0282 ± 0.0029 g
  Uterus, absolute weight: 0.6212 ± 0.0948 g
[3]
  Adrenals, absolute weight: 0.0758 ± 0.0114 g
  Body weight: 243.48 ± 10.53 g
  Brain, absolute weight: 2.0232 ± 0.044 g
  Heart, absolute weight: 0.999 ± 0.0943 g
  Kidneys, absolute weight: 1.8596 ± 0.1438 g
  Liver, absolute weight: 7.3692 ± 0.709 g
  Ovaries, absolute weight: 0.096 ± 0.0182 g
  Spleen, absolute weight: 0.5508 ± 0.0854 g
  Thymus, absolute weight: 0.535 ± 0.0762 g
  Thyroid, absolute weight: 0.0338 ± 0.005 g
  Uterus, absolute weight: 0.4664 ± 0.1167 g
[4]
  Adrenals, absolute weight: 0.076 ± 0.0116 g
  Body weight: 238.86 ± 9.44 g
  Brain, absolute weight: 1.9918 ± 0.0665 g
  Heart, absolute weight: 1.0914 ± 0.0821 g
  Kidneys, absolute weight: 1.924 ± 0.0685 g
  Liver, absolute weight: 7.8582 ± 0.5028 g
  Ovaries, absolute weight: 0.108 ± 0.0223 g
  Spleen, absolute weight: 0.545 ± 0.0571 g
  Thymus, absolute weight: 0.478 ± 0.0725 g
  Thyroid, absolute weight: 0.0344 ± 0.0057 g
  Uterus, absolute weight: 0.5842 ± 0.0922 g
[5]
  Adrenals, absolute weight: 0.0612 ± 0.0041 g
  Body weight: 342.57 ± 13.86 g
  Brain, absolute weight: 2.062 ± 0.1162 g
  Epididymides, absolute weight: 1.0408 ± 0.0584 g
  Heart, absolute weight: 1.5727 ± 0.082 g
  Kidneys, absolute weight: 2.5043 ± 0.0600 g
  Liver, absolute weight: 9.9218 ± 0.6297 g
  Spleen, absolute weight: 0.741 ± 0.1802 g
  Testis, absolute weight: 3.3857 ± 0.1596 g
  Thymus, absolute weight: 0.4433 ± 0.0724 g
  Thyroid, absolute weight: 0.0358 ± 0.0092 g
[6]
  Adrenals, absolute weight: 0.0564 ± 0.0078 g
  Body weight: 380.74 ± 8.63 g
  Brain, absolute weight: 2.163 ± 0.0999 g
  Epididymides, absolute weight: 0.9464 ± 0.0677 g
  Heart, absolute weight: 1.485 ± 0.1408 g
  Kidneys, absolute weight: 2.8174 ± 0.3469 g
  Liver, absolute weight: 11.4326 ± 0.5122 g
  Spleen, absolute weight: 0.7378 ± 0.14 g
  Testis, absolute weight: 3.328 ± 0.2025 g
  Thymus, absolute weight: 0.545 ± 0.1054 g
  Thyroid, absolute weight: 0.0494 ± 0.0051 g
[7]
  Adrenals, absolute weight: 0.0654 ± 0.0073 g
  Body weight: 397.34 ± 21.46 g
  Brain, absolute weight: 2.181 ± 0.1198 g
  Epididymides, absolute weight: 0.9564 ± 0.0348 g
  Heart, absolute weight: 1.728 ± 0.2013 g
  Kidneys, absolute weight: 3.151 ± 0.1131 g
  Liver, absolute weight: 12.5468 ± 0.8106 g
  Spleen, absolute weight: 0.8204 ± 0.1012 g
  Testis, absolute weight: 3.2666 ± 0.0813 g
  Thymus, absolute weight: 0.6256 ± 0.1022 g
  Thyroid, absolute weight: 0.0498 ± 0.0093 g
[8]
  Adrenals, absolute weight: 0.066 ± 0.0075 g
  Body weight: 394.58 ± 14.44 g
  Brain, absolute weight: 2.1528 ± 0.0816 g
  Epididymides, absolute weight: 0.9956 ± 0.0459 g
  Heart, absolute weight: 1.6352 ± 0.0401 g
  Kidneys, absolute weight: 2.9858 ± 0.1294 g
  Liver, absolute weight: 12.2242 ± 0.7073 g
  Spleen, absolute weight: 0.793 ± 0.109 g
  Testis, absolute weight: 3.4182 ± 0.3029 g
  Thymus, absolute weight: 0.6608 ± 0.082 g
  Thyroid, absolute weight: 0.0482 ± 0.0075 g

Source: paper PMC9363195, “Preclinical Pharmacokinetics, Biodistribution, and Acute Toxicity Evaluation of Caerin 1.9 Peptide in Sprague Dawley Rats” (Evidence-based Complementary and Alternative Medicine : eCAM, 2022)
